“Also recorded” adds a separate entry of the source.
Tests used:
[1] = target: T1, human erythrocyte calpain 1 (Homo sapiens, UniProt P07384); test: Calpain-Glo Protease Assay; format: biochemical; conditions: 5 mM CaCl2, 10 min, room temperature; mean of two experiments
T1 construct: human erythrocyte calpain 1 (MilliporeSigma); purchased MilliporeSigma; host or cells: human erythrocytes
T1 sequence (P07384 1-714): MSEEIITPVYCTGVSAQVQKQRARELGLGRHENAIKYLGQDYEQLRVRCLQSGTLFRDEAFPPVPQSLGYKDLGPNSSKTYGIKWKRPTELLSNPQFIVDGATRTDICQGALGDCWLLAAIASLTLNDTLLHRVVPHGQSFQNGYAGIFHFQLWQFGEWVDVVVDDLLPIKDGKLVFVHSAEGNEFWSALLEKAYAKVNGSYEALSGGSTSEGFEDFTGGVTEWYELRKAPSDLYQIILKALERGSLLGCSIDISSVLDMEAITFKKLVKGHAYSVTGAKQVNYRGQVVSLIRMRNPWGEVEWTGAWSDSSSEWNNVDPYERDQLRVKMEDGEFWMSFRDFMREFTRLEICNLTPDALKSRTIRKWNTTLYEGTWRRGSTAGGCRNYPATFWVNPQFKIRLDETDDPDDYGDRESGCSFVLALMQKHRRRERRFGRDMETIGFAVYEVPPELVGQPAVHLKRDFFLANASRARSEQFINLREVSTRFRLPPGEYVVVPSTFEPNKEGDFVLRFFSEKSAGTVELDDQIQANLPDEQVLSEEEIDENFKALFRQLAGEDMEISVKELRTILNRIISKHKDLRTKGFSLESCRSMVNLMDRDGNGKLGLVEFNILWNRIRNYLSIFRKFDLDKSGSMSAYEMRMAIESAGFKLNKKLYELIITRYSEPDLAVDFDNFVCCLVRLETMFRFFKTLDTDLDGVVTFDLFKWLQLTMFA
T1 sequence (P04632 1-268 partner): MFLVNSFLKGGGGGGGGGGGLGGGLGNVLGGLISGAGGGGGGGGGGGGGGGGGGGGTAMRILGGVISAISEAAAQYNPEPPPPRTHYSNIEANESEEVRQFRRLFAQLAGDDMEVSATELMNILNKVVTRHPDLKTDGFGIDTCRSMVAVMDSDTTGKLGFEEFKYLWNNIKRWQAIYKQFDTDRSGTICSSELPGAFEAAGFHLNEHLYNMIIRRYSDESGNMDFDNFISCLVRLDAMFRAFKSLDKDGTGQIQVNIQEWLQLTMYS
Experimental: (§1) For measurement of inhibitory activities against calpains in vitro, Calpain-Glo Protease Assay (Promega; Madison, WI, USA) was performed using human erythrocyte calpain 1 (MilliporeSigma) and purified porcine calpain 2. Briefly, 24 µL of each calpain diluted with 20 mM Tris-HCl (pH 7.4), 1 µL of each inhibitor, and 25 µL of reaction buffer including CaCl2 in a 96-well plate was incubated for 10 min at room temperature. The final concentration of CaCl2 in the reaction solution was 5 mM. The luminescence was measured using a microplate reader (GloMax Discover System; Promega). IC50 values from two independent experiments were averaged.

[2] = system: purified porcine calpain 2; test: Calpain-Glo Protease Assay; format: biochemical; conditions: 5 mM CaCl2, 10 min, room temperature; mean of two experiments
Text: The porcine kidney was obtained from DART Co., Ltd. as part of a program aimed at the effective utilization of livestock by-products in Hokkaido, Japan. The procurement process followed ethical guidelines from Livestock Industry Bureau MAFF-J (ministry of agriculture, forestry and fisheries of Japan) for farm animal use, ensuring compliance with relevant regulations. Two porcine kidneys were rapidly frozen after removal, trimmed free of excess tissue or renal pelvis, and cut into small pieces (approximately 2 × 2 cm) before they thawed. About 250 g of these pieces were homogenized in 1200 mL of ice-cold 20 mM Tris-HCl (pH 8.0) with 5 mM ethylenediaminetetraacetic acid (EDTA), 0.1% 2-mercaptoethanol (2-ME), 0.1 mg/mL Pefabloc SC (MilliporeSigma, Burlington, MA, USA), 40 µg/mL bestatin, and 4 µg/mL pepstatin in a Waring blender HGBSS (Waring; Stamford, CT, USA) at 19,000 rpm using several bursts of 10 sec each with 20 sec cooling periods between each burst. The homogenate was centrifuged at 25,000 × g for 15 min at 4°C, and the supernatant was filtered through glass wool and a 5 µm filter (Merck) to remove floating lipids. The purification procedure was performed according to the method of Thompson and Goll with some minor modifications: the DEAE-cellulose and the DEAE-TSK ToyoPearl 650S columns were substituted with DEAE sepharose fast flow (Merck) and TSKgel DEAE-5PW (30) (Tosoh; Tokyo, Japan) columns, respectively. After purification, calpain-2 was dialyzed, and glycerol was added for freeze-thaw protection. The final buffer formulation was 20 mM imidazole, 5 mM 2-ME, 1 mM EDTA, 1 mM EGTA, and 20% glycerol.
as §1

[3] = system: calpains 1 and 2 in monkey retinal lysate; test: In vitro inhibitory assay of calpains from retinal lysate (CaCl2, immunoblotting); format: biochemical; conditions: non-cultured monkey retina lysate, 10 mM CaCl2, 2 hr, 37°C; inhibitor at 1, 10 and 100 µM
Experimental: (§2) Each retinal explant was sonicated in RIPA Lysis and Extraction Buffer (Thermo Fisher Scientific), with protease inhibitors cocktail (Complete Mini-EDTA-free; MilliporeSigma). Protein concentrations in lysates were measured by BCA assay (Pierce BCA Protein Assay Kit, Thermo Fisher Scientific) using bovine serum albumin as a standard. For immunoblotting, 5 μg of each sample was loaded and run on 4% to 12% gradient or 10% SDS-PAGE gels (NuPAGE Bis-Tris Protein Gels, Thermo Fisher Scientific) with 2-(N-morpholino)ethanesulfonic acid buffer or 3-(N-morpholino) propanesulfonic acid buffer (Thermo Fisher Scientific). Proteins were then electrotransferred to a polyvinylidene fluoride membrane (MilliporeSigma) at 100 V for 60 min or 1.5 hr. Membranes were then blocked with 5% skim milk in Tris-buffer saline (Bio-Rad Laboratories, Hercules, CA, USA) containing 0.05% Tween 20. Each membrane was probed with primary antibodies against α-spectrin (1:2000 dilution, Enzo Life Sciences, Farmingdale, NY, USA), SBDP150 (1:1000 dilution, Senju Pharmaceutical), calpain 1 (1:1000 dilution, Thermo Fisher Scientific), calpain 2 (1:500, GeneTex, Irvine, CA, USA), cathepsin K (1:500 dilution, Abcam), and β-actin (1:1000 dilution, Merck). For calpain 1, immunoreactivity was visualized using a secondary antibody conjugated to alkaline phosphatase and the AP Conjugate Substrate Kit (Bio-Rad Laboratories). For other proteins, immunoreactivities were visualized using secondary antibodies conjugated with rabbit (Santa Cruz Biotechnology) or mouse horseradish peroxidase enzyme (Cytiva, Wilmington, DE, USA) and ECL Plus detection reagents (Cytiva). Images of the membranes were captured with FluorChem FC2 imager (Cell Biosciences, Santa Clara, CA, USA). The conversion of pro-cathepsin K (38 kDa) to its mature form (27 kDa) was used as an indicator of cathepsin K activation.
To confirm the isozyme specificities of calpain inhibitors in vitro, non-cultured monkey retinas were sonicated in a buffer containing 20 mM Tris (pH 7.5), 5 mM EGTA, 5 mM EDTA, 2 mM DTE. […]

[4] = system: calpain-specific SBDP150 in nerve fiber layer (NFL); test: SBDP150 immunostaining of flat-mounted retinal explants under hypoxia/reoxygenation; format: cell-based, rhesus macaques (Macaca mulatta); conditions: H16R8
Experimental: (§3) Retina explant culture was performed as described in our previous report, except for the induction of hypoxia. Briefly, a hypoxic chamber (Coy Laboratory Products, Grass Lake, MI, USA) was controlled at 0.3% oxygen with a 95% N2/5% CO2 gas mixture. Retinas were dissected into fan-shaped explants with 6 or 7 petals (> 5 mm) in HBSS. Each explant was placed with the RGC side facing up on a Millicell organotypic standing insert (0.4 μm, 30 mm diameter, MilliporeSigma) in six-well, culture plates. They were cultured for 2 hr at 37°C under 95% N2/5% CO2 in Neurobasal-A medium supplemented with B27, N2 supplements, 2 mM L-glutamine (Thermo Fisher Scientific, Waltham, MA, USA), and 100 μg/mL primocin (Invivogen, San Diego, CA, USA). Retinal explants were then chamber-cultured under hypoxic conditions for 16 hr in a culture medium with 0.5 mM glucose, under 0.3% oxygen. The retinas were then re-oxygenated for 8 hr in a culture medium with 5.5 mM glucose. Normoxic control retinas were cultured for 24 hr in a culture medium with 5.5 mM glucose. When present, calpain inhibitors (SNJ-1945, PD-151746, C2I, and ABT-957) and cathepsin inhibitors (Odanacatib and SID26681509) in 0.1% DMSO were used at the final concentration of 10 or 100 μM in the medium. BAPTA (Thermo Fisher Scientific) and BAPTA-AM (Thermo Fisher Scientific) were also used at a final concentration of 3 or 10 mM or a final concentration of 100 or 500 μM, respectively.
(§4) All inhibitors and BAPTA were treated simultaneously with hypoxia induction, and BAPTA-AM treatment was 2 hr before hypoxia induction.
Formalin-fixed retinal explants were incubated overnight at −30°C in 1: 4 dilutions of DMSO-ethanol to promote antibody penetration. The explants underwent two cycles of freezing and thawing between −80°C and room temperature in 100% ethanol for 20 min. The retinas were then rehydrated in 70%, 50%, and 15% ethanol and PBS for 20 min each, followed by overnight incubation with 0.2% Triton X-100. The samples were stained with antibodies specific for calpain-specific SBDP150 [8] (1:100 dilution, Senju Pharmaceutical) and β-III tubulin (a neuron marker, 1:500 dilution, Merck). The nerve fiber layer (NFL) was observed approximately 5 mm from the tips of the fan-shaped retinal flat mounts. Confocal images were taken using a model LSM 880 spectral confocal system with a 20x 0.8 NA lens (Carl Zeiss, Oberkochen, Germany).

[5] = system: RGCs in monkey retinal explants; test: PI staining and RGC counting in retinal explants under hypoxia/reoxygenation; format: cell-based, rhesus macaques (Macaca mulatta); conditions: H16R8; calcium chelator at higher concentration (BAPTA 10 mM; BAPTA-AM 0.5 mM, 2 hr before hypoxia)
Text: Globes were obtained from rhesus macaques (Macaca mulatta) at 1–7 years of age from the Oregon National Primate Research Center (Beaverton, OR, USA). The wide range of ages was unavoidable because they became available from experiments that were unrelated to the present studies. These eyes were acceptable for the purpose of our experiments. The eyes were dissected within 5 hr after death, and excised eyes were soaked in cold Hanks’ balanced salt solution (HBSS; Corning, NY, USA) or Dulbecco’s phosphate-buffered saline (DPBS; Corning). Experimental animals were handled in accordance with the Research in Vision and Ophthalmology Statement for the Use of Animals in Ophthalmic and Vision Research and with the Guiding Principles in the Care and Use of Animals (Department of Health Education and Welfare Publication National Institutes of Health 80−23).
as §3, §4
To assess the disruption of membrane barrier function, propidium iodide (PI) was utilized. Following hypoxia/reoxygenation treatment, retinal explants were incubated for 20 min in a medium containing a final concentration of 2 μg/ml of PI. For quantitative analysis, the RGC marker, RNA-binding protein with multiple splicing (RBPMS) was used at a 1:100 dilution (PhosphoSolutions, Aurora, CO, USA). RBPMS-positive and PI-positive cells in the ganglion cell layer were counted in 2 images from 2 square areas (775 × 775 μm each) located 3–5 mm and 5–7 mm away from the tips of the fan-shaped retinal flat mounts. The percentage of PI-positive RGCs was calculated as [the number of PI and RBPMS-double positive cells/the number of all RBPMS-positive cells] × 100.

[6] = system: calpain 1 activation and proteolysis of α-spectrin; test: Immunoblotting of retinal explants under hypoxia/reoxygenation; format: cell-based, rhesus macaques (Macaca mulatta); conditions: H16R8; BAPTA 3 or 10 mM, BAPTA-AM 0.1 or 0.5 mM
Experimental: as §3, §4, §2

IC50 [1]	IC50 [2]	SMILES	Effect on calcium-induced activation (autolysis) of calpains 1 and 2 and SBDP150 in retinal lysate [3]	Effect on SBDP150 staining in NFL ([4]; BAPTA-AM 500 μM)	Effect on RGC damage (PI-positive RGCs) [5]	Effect on activation of calpain 1 and proteolysis of α-spectrin (immunoblot) [6]	Effect on SBDP150 staining in NFL ([4]; BAPTA at lower concentration (3 mM))
403 nM	429 nM	O=C(NC1CC1)C(=O)C(Cc1ccccc1)NC(=O)[C@H]1CCC(=O)N1Cc1ccccc1 (stereo partly drawn) [ABT-957]	inhibited the activation of both calpain 1 and calpain 2 in a dose-dependent manner	–	–	–	–
–	–	CC(=O)OCOC(=O)CN(CC(=O)OCOC(C)=O)c1ccccc1OCCOc1ccccc1N(CC(=O)OCOC(C)=O)CC(=O)OCOC(C)=O [BAPTA-AM]	–	inhibited the increase in SBDP150 staining	partial	mitigated	–
–	–	O=C(O)CN(CC(=O)O)c1ccccc1OCCOc1ccccc1N(CC(=O)O)CC(=O)O [BAPTA]	–	–	almost completely inhibited	mitigated; also recorded: inhibited the autolytic activation of calpain 1	reduced SBDP150 staining
150 nM	249 nM	O=C(O)/C(S)=C/c1c[nH]c2ccc(F)cc12 [PD-151746]	also inhibited calpain activation, but not as strongly as SNJ-1945 and ABT-957	–	–	–	–

Source: publication PMC12250347, “Calcium-dependent pathway as a primary cause of hypoxic RGC damage in monkey retinal explants” (PLOS One, 2025)
